In a melting point compilation (Tetko et al.; mined from patent text by program, amines drawn as free bases though some values may be those of a salt) one finds melting point data, which are given here for 60 compounds.

Some results are limits rather than exact numbers.

A word on the melting point: it is the temperature of the solid-liquid transition. Compound `OC(CSCc1ccc(Cl)cc1)C12CC3CC(CC(C3)C1)C2` (stereo not given) yielded a melting point of 74 to 79 °C.

Regarding `CCCc1nc(CC)c(C(=O)O)n1Cc1ccc(C2(C(=O)O)CC=CC2)s1`, the melting point was 157 to 161 °C.

Compound `COc1cccc(-c2c(F)c(F)c(N)c(F)c2F)c1` displayed a melting point of 94 to 96 °C.

Compound `Cc1cc(Oc2cccc(C(F)(F)F)c2)nn1C(=O)Nc1cccc([N+](=O)[O-])c1` showed a melting point of 83 to 86 °C.

The compound `CCOC(=O)CN(CC(=O)OCC)C(=O)C(CCC(=O)O)CS(=O)(=O)c1ccc2ccccc2c1` (stereo not given) had a melting point of 108 to 111 °C.

In turn, `NC(=S)NN=C(CCC(=O)NCc1ccccc1)c1ccccc1` displayed a melting point of 162 to 164 °C.

In turn, `COCC(C)N1Cc2c(NC(=O)c3ccc(F)c(C(F)(F)F)c3)cccc2C1=O` (stereo not given) came in with a melting point of 151 to 152 °C.

As for `O=C(COc1ccc(Cl)cc1)N1CC2COCC2C1` (stereo not given), the melting point stood at 110 °C.

Compound `CCOC(=O)C1=C(CSC(C)=O)NC=C(C(=O)OC)C1c1cccc(Cl)c1Cl` (single isomer, unassigned; (-)) returned a melting point of 155 to 157 °C.

On to `Cc1ccc(S(=O)(=O)Oc2ccc3nc(S(N)(=O)=O)sc3c2)cc1`, for which the melting point was found to be 142 °C.

`COc1cccc(C(=O)N[C@H]2C[C@@H](c3cc(NC(=O)Cc4cccc5ccccc45)n[nH]3)C2)c1` returned a melting point of 125 °C.

Regarding `CNCC(=O)Nc1ccc(S(=O)(=O)c2cccc(Cl)c2)cc1`, the melting point lay within 110 to 112 °C.

In turn, `N#Cc1ccccc1CCC(=O)c1c(O)c2cccnc2n(-c2ccccc2)c1=O` came in with a melting point of 226 to 227 °C.

The compound `CCOC(=O)c1ncc2[nH]c3ccc(C4CCCCC4)cc3c2c1C` gave a melting point of 191 to 193 °C.

As for `Cc1nc2ccccc2c(=O)n1-c1ccccc1C#N`, the melting point was in the range of 165 to 166 °C.

With `CCCC(SCC(=O)O)c1ccc2c(c1)OCO2` (stereo not given), the melting point was in the range of 59 to 61 °C.

For the compound `Clc1ccc2c(c1)C(c1ccccc1)=NCc1nnc(Cc3ccccc3)n1-2`, the melting point was 190 to 192 °C.

In turn, `CCCCc1oc2ccccc2c1-c1ncc(-c2ccc3c(Br)c(OCc4nnn[nH]4)ccc3c2)o1` showed a melting point of 235 to 237 °C.

In turn, `NCC1Cc2cc(C(F)(F)F)cc(-c3cc(F)ccc3F)c2O1` (stereo not given) gave a melting point greater than 250 °C.

`CC(=O)N(O)Cc1ccc(Oc2ccccn2)cc1` came in with a melting point of 97 to 99 °C.

`CCc1cc(OC)c(-c2nc(N)sc2CCC2CCCCC2)cc1OC` registered a melting point of 88 °C.

As for `CC(C)(C)OC(=O)NC(CC1CCCCC1)C(O)C(O)C(CC1CCCCC1)NC(=O)OC(C)(C)C` (stereo not given), the melting point lay within 224 to 226 °C.

For the compound `Cc1cc(C(O)(C(F)(F)Cl)C(F)(F)Cl)cc(C)c1O`, the melting point was 90.5 to 92 °C.

In turn, `COc1cc(C)c(C(=O)c2c(Cl)cccc2Cl)c(O)c1O` had a melting point of 182 °C.

`CC[C@H](C)[C@H](NC(=O)[C@H](C)N(C(C)=O)C1CCCCC1)C(=O)N[C@@H](Cc1ccc2ccccc2c1)[C@@H](O)[C@@H](O)CC(C)C`: the melting point was in the range of 192 to 194 °C.

Consider `CCCCc1cn(CCCC)c(=O)n1Cc1ccc(-c2ncccc2-c2nnn[nH]2)cc1`, for which the melting point was in the range of 178 to 180 °C.

Turning to `COc1ccc(C=CC2=NNC(C)Cc3cc4c(cc32)OCO4)cc1OC` (stereo not given), the melting point lay within 166 to 168 °C.

In turn, `COc1cc(CC(=O)NCCCc2ccc(C)c(C)c2)ccc1OCCBr` gave a melting point of 105 °C.

The compound `CN(CC(O)CO)C(=O)c1c(I)c(C#N)c(I)c(C(=O)NCC(O)CO)c1I` (stereo not given) registered a melting point of 215 °C.

`CNS(=O)(=O)c1ccc2c(c1)C=C(C(=O)O)C(C(F)(F)F)O2` (stereo not given) yielded a melting point of 208 to 209 °C.

Regarding `C#CCN(C(=O)CO)c1c(C)nc(N(C)C)nc1C`, the melting point fell in the range of 128 to 130 °C.

With `O=[N+]([O-])c1cc(Cl)c(Br)cc1Cl`, the melting point fell in the range of 50 to 53 °C.

The compound `Cc1ccc(-c2nc(-c3nn(Cc4ccccc4F)c4ncccc34)ncc2C#N)cc1` showed a melting point of 229 °C.

`NCC1Cc2cccc(Nc3cc(Cl)cc(Cl)c3)c2O1` (stereo not given) had a melting point greater than 250 °C.

As for `CC1CCN(C(=O)[C@H]2CC=CC[C@@H]2NC(=O)C(F)(F)F)CC1`, the melting point fell in the range of 169 to 170 °C.

Consider `CCCCCCCCCCCCCCCCCCNC(=O)OCC(CNS(=O)(=O)CCCI)Oc1ccon1` (stereo not given), for which the melting point lay in the range of 69 to 71.5 °C.

Consider `FC(F)(F)Sc1[nH]ccc1-c1ccc(Cl)cc1`, for which the melting point fell in the range of 44 to 46 °C.

Compound `Cc1nccc(N2CCC(CN3CCN(C(=O)c4ccc(F)cc4)CC3)CC2)n1` had a melting point of 127 to 128 °C.

As to `CC(=O)N1CCC(C(=O)N(CCCN2CC3CN(C(=O)c4cccnc4N4CCC4)CC3C2)c2ccc(C)c(Cl)c2)CC1` (stereo not given), the melting point fell in the range of 72.9 to 74 °C.

In the case of `Cc1c(-c2cc(CO)c(Cl)cc2F)nn(C)c1C(F)(F)F`, the melting point came to 58 °C.

For the compound `CCc1c2c(nn1C)c(N)nc1ccccc12`, the melting point was in the range of 257 to 259 °C.

As to `N[C@@H]1C[C@H]2CC[C@@H]1N(c1cc3c(cc1F)c(=O)c(C(=O)O)cn3C1CC1)C2`, the melting point lay in the range of 267 to 270 °C.

For the compound `O=C(O)C1CCc2c(c(=O)c3cccnc3n2-c2cccc(Cl)c2)C1` (stereo not given), the melting point was 279 to 280 °C.

Consider `CC1(C)CCC(=O)Nc2cc(OCCCN3CCN(c4cccc(Cl)c4Cl)CC3)ccc21`, for which the melting point lay in the range of 162 to 164 °C.

On to `CCc1n[nH]c(CC)c1CCCCCCOc1cc(Cl)c(OC)cc1Cl`, for which the melting point lay within 148 to 150 °C.

As to `O=C(O)Cc1cnc(Cc2ccc(NC(=O)c3ccc(C(F)(F)F)cc3)cc2)n2ccnc12`, the melting point fell in the range of 205 to 207 °C.

Regarding `COc1ccccc1N1CCN(C(=O)N(C)c2cc(C)c(C)nc2OC)CC1`, the melting point lay in the range of 131 to 132 °C.

Consider `CC1=C(c2ccc(O)cc2)CCC(=O)N1`, for which the melting point was in the range of 197 to 200 °C.

In turn, `CCCCNC(=O)c1cccc(NC(=O)NS(=O)(=O)c2ccc(C)cc2)c1` came in with a melting point of 125 to 128 °C.

In turn, `c1ccc2c(NC3CCCC3)nnc(Cc3ccncc3)c2c1` displayed a melting point of 163 to 165 °C.

Consider `CC(O)c1cc2c(n1C)C(=O)c1cccc(O)c1C2=O` (stereo not given), for which the melting point lay within 219 to 220 °C.

The compound `CS(=O)(=O)c1ccc(-c2nc(C(F)(F)F)[nH]c2-c2ccc(Cl)c(Cl)c2)cc1` registered a melting point of 249 to 251 °C.

`COc1ccc(C(=O)Nc2ccc(C(C)(C)CNC(=O)c3cnc4[nH]ccc4c3)cc2)cc1OC` came in with a melting point of 256 to 258 °C.

`CCC(=O)C(C(=O)OC)C(C(=O)c1ccccc1)c1ccc(F)cc1` (stereo not given) came in with a melting point of 104 to 109 °C.

As for `CCOC(=O)c1c(CN(CC)CC)nc2sc(C)c(C)c2c1-c1ccc(OC)cc1`, the melting point was in the range of 116 to 118 °C.

As to `CCCc1c(OCCCCCc2ccc(OC)c(OC)c2)ccc(C(C)=O)c1O`, the melting point is 72 to 75 °C.

Compound `CC(C)c1ccccc1Sc1c(O)cc(-c2ccc(OCc3ccccc3)cc2)oc1=O` gave a melting point of 163 to 165 °C.

The compound `Cc1c(C)c2c(c(C)c1NC(=O)CC(C)(C)C)C(c1ccc(C=O)cc1)CO2` (stereo not given) registered a melting point of 195 to 196 °C.

`O=S(=O)(c1ccc(O)c(-c2ccccc2)c1)c1ccc(O)c(-c2ccccc2)c1` registered a melting point of 243 to 245 °C.

`Cc1cc(C[C@@H](NC(=O)c2cccc3c2C=CCCC3)[C@@H](O)c2ccc(F)cc2)cc(OC(F)(F)C(F)F)c1` (racemic) showed a melting point of 175 to 176 °C.
